Measured values as given in patent US20230067910A1, “NOVEL COMPOUNDS FOR THE DIAGNOSIS, TREATMENT AND PREVENTION OF DISEASES ASSOCIATED WITH THE AGGREGATION OF ALPHA-SYNUCLEIN” (MODAG GMBH, priority 2019, published 2023).
Where two headings read alike, the source gives them in different places.

What was measured:
[1] = target: T1, alpha-synuclein (fibrils) (Homo sapiens, UniProt P37840); assay: Competition binding assay, protocol 3a, reference ligand [3H]-compound 1, alpha-synuclein fibrils; details: reference ligand [3H]-compound 1 (1 nM)
T1 construct: made in house; host or cells: E. coli
Method: (§1) Alpha-synuclein and tau46 were purified from E. coli according to established protocols (Nuscher B, et al., J. Biol. Chem., 2004; 279(21):21966-75), Aβ1-42 was obtained from rPeptide, Watkinsville, Ga., USA. Fibrils were prepared by aggregation of recombinant protein via constant agitation. In detail, 70 μM of alpha-synuclein mixed with 100 mM NaCl in 50 mM Tris, pH 7.0+0.02% NaN3 were incubated at 1,400 rpm, 37° C. for 96 h. 10 μM of tau46 were incubated with 0.03 mg/ml heparin in 50 mM Tris, pH=7.0 at 1,000 rpm, 37° C. for 72 h. Aβ1-42 was solved in 20 mM NaPi, pH=8.0+0.2 mM EDTA+0.02% NaN3 (Deeg A A, et al., Biochim. Biophys. Acta, 2015; 1850(9): 1884-90; Goedert M, et al. Nature, 1996; 383(6600): 550-3).
(§2) A fixed concentration of sonicated human recombinant αSYN (200 nM/well) or tau46 (208 nM/well) fibrils diluted in phosphate buffered saline (PBS) were incubated in low binding plates (96 well micro test plate, Ratiolab GmbH, Dreieich, Germany) together with 1 nM [^3H]-compound 1 and 1:4 serial dilutions of the cold compound of interest starting from 1 μM diluted in 50 mM Tris-base, 10% EtOH, 0.05% Tween20, pH 7.4. For the calculation of Ki values the KD value of compound 1 toward sonicated human recombinant αSYN fibrils was set to 3 nM.
(§3) Assay plates were incubated under agitation at 37° C. for 2 h covered by plastic foil (Resealable tape, PerkinElmer, Waltham, Mass., USA). Prior to harvesting, a filter (Printed filtermat B, PerkinElmer, Waltham, Mass., USA) was incubated with 5 mg/mL polyethylenimine (PEI, Poly(ethyleneimine) solution, Sigma Aldrich Chemie GmbH, Taufkirchen, Germany) at 4° C. for 30 min. After incubation, bound and free ligands were separated by vacuum filtration using a harvester (Filtermate harvester, PerkinElmer, Waltham, Mass., USA). The filter was washed three times with buffer cooled to 4° C. and subsequently dried in the microwave for 2 min at medium power. The filter was sealed in a plastic bag (Sample bag for MicroBeta®, PerkinElmer, Waltham, Mass., USA) together with added scintillator (BETAPLATE SCINT, PerkinElmer, Waltham, Mass., USA). Accumulation of tritium was counted in a liquid scintillation counter (Wallac MicroBeta® TriLux, 1450 LSC & Luminescence Counter, PerkinElmer, Waltham, Mass., USA) immediately. Radioactivity was plotted against the increasing tritium-labeled compound or cold compound concentrations. Data points were fitted using nonlinear regression analysis in GraphPad Prism (GraphPad Software, Inc., Version 7.03, La Jolla, Calif., USA).
(§4) The fibril competition assay provides Ki values. Ki is a quantitative measure that represents the concentration of the non-radioactive tested compound (competitor ligand) required to replace 50% of a reference compound, in this case [H]-compound 1 (1 nM) or [H]-compound 2 (1 nM), which is bound to the target structures (1 nM), in our case recombinant alpha-synuclein and tau46 fibrils. This assay is suitable for a screening of non-radioactive ligands.

tau46 (fibrils) = target: T2, tau46 (fibrils) (Homo sapiens, UniProt P10636); assay: Competition binding assay, protocol 3a, reference ligand [3H]-compound 1, tau46 fibrils; details: Experiment B, reference ligand [3H]-compound 1 (1 nM)
T2 construct: made in house; host or cells: E. coli
Method: as §1, §2, §3, §4

[2] = target: T3, alpha-synuclein (sonicated fibrils) (Homo sapiens, UniProt P37840); assay: Modified competition binding assay, protocol 3b, reference ligand [3H]-compound 2; details: Table 5, reference ligand [3H]-compound 2 (1 nM)
T3 construct: made in house; host or cells: E. coli
Method: as §1
For competition binding experiments, a fixed concentration of recombinant αSYN fibrils (sonicated, 15 nM/well) was incubated with 1 nM [^3H]-compound 1 or [3H]-compound 2 and decreasing concentrations of a serial dilution of non-labeled competitor (serial dilution 1:4 or 1:3.5 or 1:3 providing the concentration ranges of non-labeled competitor 1 μM-[…] 1 μM-4 nM or 1 μM-[…], respectively) in 30 mM Tris-HCl, 10% ethanol, 0.05% Tween20, pH 7.4 in a total volume of 200 μL/well. Plates were incubated for 4.5 hours at RT covered by removable sealing tape (PerkinElmer, Waltham, Mass., USA).
Filtration and readout were performed as described for saturation binding assays. [^3H]-labeled ligand binding [in CMP] was plotted against increasing competitor concentrations and data points were fitted using non-linear regression analysis to calculate the IC50 and Ki values (GraphPad Software, Inc., Version 7.03, La Jolla (Calif.), USA). In the competition binding assay with sonicated recombinant αSYN fibrils, the calculation of Ki values was done based on KD values of 0.6 nM and 0.2 nM for compound 1 and compound 2, respectively.
as §4

[3] = system: H4 cells overexpressing alpha-synuclein hemi-Venus fusion constructs (V1S+SV2); assay: Cellular model of aggregated alpha-synuclein-dependent toxicity, V1S+SV2 H4 cells; format: cell-based; details: 10 μM compound, 100 μM FeCl3, 0.75% DMSO, 48 h; for inhibition at 10 µM: read-out: Change in fraction of condensed nuclei (rel. to DMSO control) [%]
Method: (§5) To identify potential therapeutically useful effects, compounds were tested in two cellular models of aggregated alpha-synuclein-dependent toxicity in H4 cells. These cellular models allow for the inducible overexpression of alpha-synuclein hemi-Venus fusion constructs (V1S+SV2) or full-length alpha-synuclein (the model is described in detail in: Bartels M, Weckbecker D, Kuhn P H, Ryazanov S, Leonov A, Griesinger C, Lichtenthaler S F, Bötzel K, Giese A: Iron-mediated aggregation and toxicity in a novel neuronal cell culture model with inducible alpha-synuclein expression, Sci. Rep. 2019 Jun. 24; 9(1):9100). Moreover, addition of DMSO and FeCl3 promotes the aggregation of alpha-synuclein which is associated with an increase in cytotoxicity. The cell culture assay uses these effects by determining the change in the number of cells and the change in the percentage of condensed nuclei, which is indicative of apoptosis, in order to obtain information on which compounds show the most promising effects and thus might be therapeutically useful.
(§6) In these experiments, cells were incubated with 100 μM FeCl3 and 0.75% DMSO in the presence of 10 μM anle138c as a positive control, compounds 1 to 19 (10 μM), or DMSO as a negative control. After 48 h, the cells were imaged with an OPERA high-throughput imaging system and analyzed using Acapella software (Perkin Elmer). […] A reduction in the fraction of condensed nuclei (in the absence of a strong reduction in cell number) is indicative of a beneficial therapeutic effect.

[4] = system: H4 cells overexpressing full-length alpha-synuclein; assay: Cellular model of aggregated alpha-synuclein-dependent toxicity, full-length alpha-synuclein H4 cells; format: cell-based; details: 10 μM compound, 100 μM FeCl3, 0.75% DMSO, 48 h; for inhibition at 10 µM: read-out: Change in fraction of condensed nuclei (rel. to DMSO control) [%]
Method: as §5, §6

[5] = target: T3, alpha-synuclein (sonicated fibrils); assay: Modified competition binding assay, protocol 3b, reference ligand [3H]-compound 1; details: Table 4b, reference ligand [3H]-compound 1 (1 nM), read-out: Ki (nM) alpha-synuclein (sonicated fibrils)
Method: Fibrils were prepared by aggregation of recombinant protein via constant agitation. In detail, 70 μM of alpha-synuclein mixed with 100 mM NaCl in 50 mM Tris, pH 7.0+0.02% NaN3 were incubated at 1,400 rpm, 37° C. for 96 h. 10 μM of tau46 were incubated with 0.03 mg/ml heparin in 50 mM Tris, pH=7.0 at 1,000 rpm, 37° C. for 72 h.
Plates were incubated for 4.5 hours at RT covered by removable sealing tape (PerkinElmer, Waltham, Mass., USA).
Filtration and readout were performed as described for saturation binding assays.
The fibril competition assay provides Ki values. […] This assay is suitable for a screening of non-radioactive ligands.

[6] = target: T4, aggregated alpha-synuclein (Homo sapiens, UniProt P37840); assay: Saturation binding assay, protocol 2a, alpha-synuclein fibrils; details: saturation assay protocol 2a, [3H]-labeled compound; read-out: KD [nM] for aggregated alpha-synuclein
T4 construct: made in house; host or cells: E. coli
Method: as §1
Sonicated αSYN (0.04 μM) or tau46 (0.4 μM) or Aβ1-42 (6 μM) fibrils diluted in PBS were incubated with decreasing concentrations of [^3H]-labeled compound (48 nM or 24 nM-[…]) in 50 mM Tris-base, 10% ethanol, 0.05% Tween20, pH 7.4. To determine non-specific binding, the respective unlabeled compound (400 nM) was added to a duplicate set of binding reactions.
as §3, with “2 h,” for “2 h”, “microwave oven” for “microwave”, “power. Melt-on scintillator sheets (MeltiLex™ B/HS, PerkinElmer, Waltham, Mass., USA) were molten into the filter using a heating plate set to 120° C. After solidifying at room temperature, the” for “power. The”, “MicroBeta®,” for “MicroBeta®, PerkinElmer, Waltham, Mass., USA) together with added scintillator (BETAPLATE SCINT,”
The fibril-binding saturation assay provides KD values. This assay is performed with directly radioactively labeled compounds (e.g. ^3H labeling). The saturation binding assays were performed using as target structures fibrillar aggregates produced from recombinant human alpha-synuclein, Aβ1-42, and tau46, respectively.

[7] = Experiment A, read-out: Ki (nM) alpha-synuclein (fibrils)
[8] = Experiment B, read-out: Ki (nM) alpha-synuclein (sonicated fibrils)

T2 sequence (P10636 1-412 isoform P10636-7): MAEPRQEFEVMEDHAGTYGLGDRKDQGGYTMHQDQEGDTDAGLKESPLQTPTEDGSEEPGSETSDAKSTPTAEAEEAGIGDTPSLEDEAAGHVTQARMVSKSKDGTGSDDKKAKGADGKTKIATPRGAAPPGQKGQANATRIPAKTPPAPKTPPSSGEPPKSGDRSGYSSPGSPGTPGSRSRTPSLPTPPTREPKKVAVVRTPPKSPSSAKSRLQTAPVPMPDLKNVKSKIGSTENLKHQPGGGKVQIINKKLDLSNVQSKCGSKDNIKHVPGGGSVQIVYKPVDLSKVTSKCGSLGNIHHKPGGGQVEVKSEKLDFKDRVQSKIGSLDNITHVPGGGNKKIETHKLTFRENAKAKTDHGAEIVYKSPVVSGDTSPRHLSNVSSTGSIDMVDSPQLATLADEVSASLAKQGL

In the case of `CN(C)c1ccc(-c2cc(-c3ccnc(F)c3)[nH]n2)cc1` [Compound 3, 4-[5-(2-fluoropyridin-4-yl)-1H-pyrazol-3-yl]-N,N-dimethylaniline], the Ki [1, 7] is reported as < 0.1 nM, the Ki [1, 8] is reported as 3 nM and the Ki (tau46 (fibrils)) is reported as 4 nM. The Ki [2] was 0.95 nM, the “Change in cell number (rel. to DMSO control) [%]” value (shortened to “Change in cell number … [%]”) [3] was −11.3% and the inhibition at 10 µM [3] was 31.9%. For the same molecule, the “Change in cell number … [%]” value [4] was −34.8% and the inhibition at 10 µM [4] was 79.1%.
For `CN(C)c1ccc(-c2cc(-c3ccnc(Br)c3)[nH]n2)cn1` [Compound 4, 5-[5-(2-bromopyridin-4-yl)-1H-pyrazol-3-yl]-N,N-dimethylpyridin-2-amine], the Ki [1, 7] was 8 nM, the Ki [1, 8] was 13 nM and the Ki (tau46 (fibrils)) was 31 nM. The Ki [2] was 0.7 nM, the “Change in cell number … [%]” value [3] was −36.9% and the inhibition at 10 µM [3] was -33.7%. For the same molecule, the “Change in cell number … [%]” value [4] was −48.6% and the inhibition at 10 µM [4] was 30.1%.
`Brc1cc(-c2cc(-c3ccc4c(c3)OCO4)n[nH]2)ccn1` [Compound 9, 4-[3-(1,3-benzodioxol-5-yl)-1H-pyrazol-5-yl]-2-bromopyridine] was tested, and the Ki [1, 7] was 2 nM, the Ki [1, 8] was < 4 nM and the Ki (tau46 (fibrils)) was 28 nM. For the same molecule, the Ki [5] was 2.1 nM, the Ki [2] was 3.3 nM and the “Change in cell number … [%]” value [3] was −22.5%. For the same molecule, the inhibition at 10 µM [3] was 31.8%, the “Change in cell number … [%]” value [4] was −35.3% and the inhibition at 10 µM [4] was 23.8%.
With `Brc1cncc(-c2cc(-c3ccc4c(c3)OCO4)n[nH]2)c1` [Compound 10] the Ki [1, 7] was 34 nM, the Ki [1, 8] was 25 nM and the Ki (tau46 (fibrils)) was > 100 nM. The Ki [2] was 7.8 nM, the “Change in cell number … [%]” value [3] was −32.8% and the inhibition at 10 µM [3] was 50.3%. The “Change in cell number … [%]” value [4] was −35.3% and the inhibition at 10 µM [4] was 60.2%.
For `Brc1cc(-c2cc(-c3ccc(N4CCC4)cc3)n[nH]2)ccn1` [Compound 17, 4-{3-[4-(azetidin-1-yl)phenyl]-1H-pyrazol-5-yl}-2-bromopyridine], the Ki [1, 8] was 2 nM, the Ki (tau46 (fibrils)) was 1 nM and the Ki [2] was 0.8 nM. The “Change in cell number … [%]” value [3] was −8.2%, the inhibition at 10 µM [3] was 38.3% and the “Change in cell number … [%]” value [4] was −28.9%. It also gave an inhibition at 10 µM [4] of 55%.
`Cn1nc(-c2ccc3c(c2)OCO3)cc1-c1ccnc(Br)c1` [Compound 18, 4-[3-(1,3-benzodioxol-5-yl)-1-methyl-1H-pyrazol-5-yl]-2-bromopyridine] was tested, and the Kd [6] was 126 nM, the “Change in cell number … [%]” value [3] was −11.8% and the inhibition at 10 µM [3] was 19.9%. The “Change in cell number … [%]” value [4] was −21.3% and the inhibition at 10 µM [4] was 18.2%.
